Test [1] concerns the target T1, CaV 3.2 (Homo sapiens, UniProt O95180).
T1 construct: expressed in transfected cells
As to the kind of experiment: CaV 3.2 calcium assay in stable human CaV3.2-HEK293 cells. It is filed as cell-based. The settings on record: control agonist calcium chloride.

Test [2] addresses T2, CX3CR1 (Homo sapiens, UniProt P49238).
T2 construct: expressed in transfected cells; host or cells: U87
T2 sequence (P49238 1-355): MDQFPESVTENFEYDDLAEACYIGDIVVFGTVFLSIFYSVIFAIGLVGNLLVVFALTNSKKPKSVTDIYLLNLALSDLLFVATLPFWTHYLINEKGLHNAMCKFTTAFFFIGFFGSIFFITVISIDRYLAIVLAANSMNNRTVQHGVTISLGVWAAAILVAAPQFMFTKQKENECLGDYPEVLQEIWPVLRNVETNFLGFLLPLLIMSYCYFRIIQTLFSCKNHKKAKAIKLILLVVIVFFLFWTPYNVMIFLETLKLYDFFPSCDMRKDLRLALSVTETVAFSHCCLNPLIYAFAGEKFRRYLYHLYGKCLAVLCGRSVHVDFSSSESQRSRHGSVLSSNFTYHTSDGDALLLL
In words: NanoBiT β-arrestin-1 recruitment, receptor selectivity panel, CX3CR1. It is filed as cell-based. The note with it: higher concentrations (3 μM, 10 μM); FIG. 3 sections B and C. The method, then:
To further assess the selectivity profile of the compounds of the invention towards ACKR3, the ability to activate the 21 classical and 4 atypical chemokines receptors and related receptors was tested using the NanoBiT assay based β-arrestin-1 recruitment described previously. The 4 classical opioid receptors described above were also included in the experimental setup. The compounds WW-1 (conolidine) and WW-12 were tested at three different concentrations, 1 μM, 3 μM and 10 μM.
This possible off-target effect was further characterized by comparing the ability of the two molecules to activate receptors ACKR4, CX3CR1 and CCR3 with reference ligands for the receptors, namely CCL19, CX3CL1 and CCL13.
Ligand-induced β-arrestin recruitment to chemokine and opioid receptors was monitored by NanoLuc complementation assay (NanoBiT, Promega). […] Ligand-induced, β-arrestin to GPCRs was evaluated with a Mithras LB940 luminometer (Berthold Technologies, running on MicroWin 2010 5.19 software (Mikrotek Laborsysteme)) for 20 minutes.
For single dose screening experiments on all chemokine receptors(FIG. 3), the results are represented as percentage of signal monitored with 100 nM of one known agonist chemokine listed in the IUPHAR repository of chemokine receptor ligands which was added as positive control.
(In general: Recruitment of arrestin is a read-out of receptor activation apart from second messengers.)

Data on 2 molecules can be found in patent publication US20240059688A1, “CONOLIDINE ANALOGUES AS SELECTIVE ACKR3 MODULATORS FOR THE TREATMENT OF CANCER” (Luxembourg Institute of Health (LIH), priority 2020, published 2024).

T1 sequence (O95180 whole entry): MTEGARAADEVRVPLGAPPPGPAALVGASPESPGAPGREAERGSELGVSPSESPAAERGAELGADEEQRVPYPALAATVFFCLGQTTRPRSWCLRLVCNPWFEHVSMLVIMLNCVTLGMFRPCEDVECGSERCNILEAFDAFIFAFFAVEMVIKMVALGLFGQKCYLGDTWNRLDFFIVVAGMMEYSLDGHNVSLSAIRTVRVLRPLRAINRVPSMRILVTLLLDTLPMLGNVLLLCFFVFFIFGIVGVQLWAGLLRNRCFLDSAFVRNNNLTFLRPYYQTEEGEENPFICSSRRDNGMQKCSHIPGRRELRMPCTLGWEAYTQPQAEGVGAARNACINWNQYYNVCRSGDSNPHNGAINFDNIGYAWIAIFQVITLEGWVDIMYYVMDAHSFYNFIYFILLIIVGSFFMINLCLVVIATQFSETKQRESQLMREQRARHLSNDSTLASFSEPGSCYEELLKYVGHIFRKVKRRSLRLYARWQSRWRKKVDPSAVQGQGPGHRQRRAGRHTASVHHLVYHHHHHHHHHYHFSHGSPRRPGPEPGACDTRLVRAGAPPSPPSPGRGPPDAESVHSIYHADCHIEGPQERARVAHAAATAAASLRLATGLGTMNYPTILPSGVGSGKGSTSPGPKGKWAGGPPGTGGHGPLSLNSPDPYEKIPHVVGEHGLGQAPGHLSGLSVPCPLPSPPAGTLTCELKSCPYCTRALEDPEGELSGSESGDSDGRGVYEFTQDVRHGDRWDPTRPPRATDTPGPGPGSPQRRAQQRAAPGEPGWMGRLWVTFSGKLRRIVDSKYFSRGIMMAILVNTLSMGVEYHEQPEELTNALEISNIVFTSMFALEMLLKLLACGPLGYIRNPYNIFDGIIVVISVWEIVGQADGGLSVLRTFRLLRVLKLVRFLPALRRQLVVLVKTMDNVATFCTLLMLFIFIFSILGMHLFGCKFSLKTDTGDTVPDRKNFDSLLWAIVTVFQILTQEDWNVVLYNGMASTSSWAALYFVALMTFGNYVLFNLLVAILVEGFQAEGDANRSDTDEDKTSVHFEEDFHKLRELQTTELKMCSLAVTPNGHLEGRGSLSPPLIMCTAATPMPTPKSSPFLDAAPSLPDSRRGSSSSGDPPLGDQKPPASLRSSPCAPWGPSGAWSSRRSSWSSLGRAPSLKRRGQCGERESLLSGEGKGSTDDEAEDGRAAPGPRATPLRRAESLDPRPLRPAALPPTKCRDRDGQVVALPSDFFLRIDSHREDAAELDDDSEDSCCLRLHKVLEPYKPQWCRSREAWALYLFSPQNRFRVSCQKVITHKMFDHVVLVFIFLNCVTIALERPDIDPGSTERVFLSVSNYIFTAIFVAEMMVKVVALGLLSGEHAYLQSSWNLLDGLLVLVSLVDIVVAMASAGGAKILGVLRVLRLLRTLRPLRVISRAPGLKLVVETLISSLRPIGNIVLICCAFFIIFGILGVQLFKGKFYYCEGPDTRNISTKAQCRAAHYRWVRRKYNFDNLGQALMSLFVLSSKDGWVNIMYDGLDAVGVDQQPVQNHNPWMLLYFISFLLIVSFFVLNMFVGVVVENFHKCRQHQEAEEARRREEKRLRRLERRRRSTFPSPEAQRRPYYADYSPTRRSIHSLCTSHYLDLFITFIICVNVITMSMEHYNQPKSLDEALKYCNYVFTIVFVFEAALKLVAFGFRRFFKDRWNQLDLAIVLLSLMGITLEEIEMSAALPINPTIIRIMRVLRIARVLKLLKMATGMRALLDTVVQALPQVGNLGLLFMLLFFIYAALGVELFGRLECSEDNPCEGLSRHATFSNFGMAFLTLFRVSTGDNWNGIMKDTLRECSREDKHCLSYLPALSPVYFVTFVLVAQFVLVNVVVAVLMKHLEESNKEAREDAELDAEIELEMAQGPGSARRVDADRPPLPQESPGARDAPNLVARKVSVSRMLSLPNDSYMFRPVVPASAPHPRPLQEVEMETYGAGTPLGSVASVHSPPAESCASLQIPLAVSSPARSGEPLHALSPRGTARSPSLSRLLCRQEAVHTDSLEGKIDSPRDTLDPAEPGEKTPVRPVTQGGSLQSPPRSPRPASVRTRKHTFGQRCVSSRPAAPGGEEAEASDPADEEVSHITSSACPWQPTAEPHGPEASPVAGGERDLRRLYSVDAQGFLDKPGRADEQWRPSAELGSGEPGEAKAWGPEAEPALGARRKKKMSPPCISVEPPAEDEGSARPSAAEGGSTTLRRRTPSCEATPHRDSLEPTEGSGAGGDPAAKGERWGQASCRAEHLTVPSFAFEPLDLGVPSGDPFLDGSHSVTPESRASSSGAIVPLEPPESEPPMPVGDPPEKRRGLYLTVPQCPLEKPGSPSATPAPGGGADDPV

In the case of `C/C=C1/CN2CC[C@H]1C(=O)c1[nH]c3ccccc3c1C2` [WW-1, (4E,5R)-4-ethylidene-1,4,5,7-tetrahydro-2,5-ethanoazocino[4,3-b]indol-6(3H)-one], the “CaV 3.2 % CaCl2 Inhibition” value in test [1] was −7%. The “activation of CX3CR1 (β-arrestin-1 recruitment) in receptor panel” value in test [2] is “weak activation”.
On the same counts, the results for `C/C=C1/CN(CCCCC)CC[C@H]1C(=O)c1cc2ccccc2[nH]1` [WW-12, [(3E,4R)-3-ethylidene-1-pentylpiperidin-4-yl](1H-indol-2-yl)methanone] are 42% and “weak activation”.
